For orientation: IC50 means the midpoint of a concentration-inhibition curve. Higher therefore signals weaker potency.

From US8716303B2, “N-(hetero)aryl-pyrrolidine derivatives of pyrazol-4-yl-pyrrolo[2,3-d]pyrimidines and pyrrol-3-yl-pyrrolo[2,3-d]pyrimidines as janus kinase inhibitors” (Incyte Corporation, priority 2009, dated 2014) come the findings set out here.

In assay [1] the target is T1, human JAK1 (a.a. 837-1142) (Homo sapiens, UniProt P23458).
T1 construct: human JAK1 (a.a. 837-1142); His tag (N); made in house; host or cells: insect cells (baculovirus)
Kind of assay: In vitro JAK kinase assay (HTRF, phosphorylation of a biotinylated peptide), JAK1. It counts as biochemical. The method in brief: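 His-tagged catalytic domains (JAK1 a.a. 837-1142, JAK2 a.a. 828-1132) from insect cells phosphorylate 500 nM biotinylated peptide in 50 mM Tris pH 7.8, 100 mM NaCl, 5 mM DTT; ATP at Km (90 μM JAK1, 30 μM JAK2) or 1 mM, as indicated. 1 h at RT; EDTA stop, HTRF readout; IC50s.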

Assay [2] has as its target T2, Jak2 (a.a. 828-1132) (Homo sapiens, UniProt O60674).
T2 construct: Jak2 (a.a. 828-1132); His tag (N); made in house; host or cells: insect cells (baculovirus)
Kind of assay: In vitro JAK kinase assay (HTRF, phosphorylation of a biotinylated peptide), JAK2, reported as JAK2/JAK1 ratio. It counts as biochemical.

The mark [3] stands for this setting: Assay Conditions Km (ATP 90 μM for Jak1).
Setting [4] is: Assay Conditions Km (ATP 90 μM for Jak1, 30 μM for Jak2).

Where a name gives a salt, the structure may show the parent alone.

T1 sequence (P23458 849-1154): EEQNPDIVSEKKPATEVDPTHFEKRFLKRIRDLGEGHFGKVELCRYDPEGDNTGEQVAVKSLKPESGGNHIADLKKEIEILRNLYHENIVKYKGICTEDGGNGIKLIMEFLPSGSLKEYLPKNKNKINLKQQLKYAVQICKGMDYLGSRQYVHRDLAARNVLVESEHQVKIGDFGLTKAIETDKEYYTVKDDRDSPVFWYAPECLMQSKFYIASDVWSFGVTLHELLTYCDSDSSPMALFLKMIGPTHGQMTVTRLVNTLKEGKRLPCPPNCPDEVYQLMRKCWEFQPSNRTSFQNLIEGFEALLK
T2 sequence (O60674 828-1132): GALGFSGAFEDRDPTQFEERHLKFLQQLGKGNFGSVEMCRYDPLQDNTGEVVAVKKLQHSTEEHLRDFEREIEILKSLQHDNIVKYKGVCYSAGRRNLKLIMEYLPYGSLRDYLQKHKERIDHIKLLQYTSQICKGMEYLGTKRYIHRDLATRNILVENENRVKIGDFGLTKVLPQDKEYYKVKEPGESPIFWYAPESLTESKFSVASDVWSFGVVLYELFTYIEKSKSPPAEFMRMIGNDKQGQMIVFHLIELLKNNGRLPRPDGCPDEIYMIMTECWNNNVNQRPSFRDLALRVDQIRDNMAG

`N#CCC(C1CCN(c2nc3cccnc3o2)C1)n1cc(-c2ncnc3[nH]ccc23)cn1` (single isomer, unassigned) [Example 13a, 3-(1-[1,3]oxazolo[5,4-b]pyridin-2-ylpyrrolidin-3-yl)-3-[4-(7H-pyrrolo[2,3-d]pyrimidin-4-yl)-1H-pyrazol-1-yl]propanenitrile] yielded an IC50 in assay [1] (setting [3]) of under 0.05 µM. For the same molecule, the “JAK2/JAK1 IC50 ratio” value in assay [2] (setting [4]) stood at 12.

In turn, `Cn1ccc2cnc(N3CCC(C(CC#N)n4cc(-c5ncnc6[nH]ccc56)cn4)C3)nc21` (single isomer, unassigned) [Example 17, 3-[1-(7-methyl-7H-pyrrolo[2,3-d]pyrimidin-2-yl)pyrrolidin-3-yl]-3-[4-(7H-pyrrolo[2,3-d]pyrimidin-4-yl)-1H-pyrazol-1-yl]propanenitrile] gave a half-inhibitory concentration (IC50) in assay [1] (Assay Conditions 1 mM ATP) of 0.1 to 0.5 µM. For the same molecule, the “JAK2/JAK1 IC50 ratio” value in assay [2] (Assay Conditions 1 mM ATP) is on record as 8.

The molecule `N#CC[C@@H]([C@H]1CCN(c2nc3c(cc2F)CCS3)C1)n1cc(-c2ncnc3[nH]ccc23)cn1` [Example 87, (3S)-3-[(3S)-1-(5-fluoro-2,3-dihydrothieno[2,3-b]pyridin-6-yl)pyrrolidin-3-yl]-3-[4-(7H-pyrrolo[2,3-d]pyrimidin-4-yl)-1H-pyrazol-1-yl]propanenitrile bis(trifluoroacetate)] registered an IC50 in assay [1] (Assay Conditions 1 mM ATP) of under 0.05 µM. Moreover, in assay [2] (Assay Conditions 1 mM ATP), the “JAK2/JAK1 IC50 ratio” value turned out to be 8.1.

For `N#Cc1csc(N2CC[C@H](C(CF)n3cc(-c4ncnc5[nH]ccc45)cn3)C2)c1C#N` (stereo partly drawn) [Example 80, 2-((3S)-3-{2-fluoro-1-[4-(7H-pyrrolo[2,3-d]pyrimidin-4-yl)-1H-pyrazol-1-yl]ethyl}pyrrolidin-1-yl)thiophene-3,4-dicarbonitrile], the IC50 in assay [1] (Assay Conditions 1 mM ATP) is under 0.05 µM. In addition, in assay [2] (Assay Conditions 1 mM ATP), the “JAK2/JAK1 IC50 ratio” value turned out to be 12.1.

Take `N#CC[C@@H]([C@H]1CCN(c2nccc(I)c2C#N)C1)n1cc(-c2ncnc3[nH]ccc23)cn1` [Example 122, 2-((3S)-3-{(1S)-2-cyano-1-[4-(7H-pyrrolo[2,3-d]pyrimidin-4-yl)-1H-pyrazol-1-yl]ethyl}pyrrolidin-1-yl)-4-iodonicotinonitrile trifluoroacetate]: the 50% inhibitory concentration (IC50) in assay [1] (Assay Conditions 1 mM ATP) is under 0.05 µM. Also, in assay [2] (Assay Conditions 1 mM ATP), the “JAK2/JAK1 IC50 ratio” value is 188.0.

With `N#CC[C@@H]([C@H]1CCN(c2ncc(C#N)cc2F)C1)n1cc(-c2ncnc3[nH]ccc23)cn1` [Example 107, 6-((S)-3-((S)-1-(4-(7H-pyrrolo[2,3-d]pyrimidin-4-yl)-1H-pyrazol-1-yl)-2-cyanoethyl)pyrrolidin-1-yl)-5-fluoronicotinonitrile trifluoroacetate salt], in assay [1] (Assay Conditions 1 mM ATP), the IC50 is under 0.05 µM. Besides, in assay [2] (Assay Conditions 1 mM ATP), the “JAK2/JAK1 IC50 ratio” value was 4.8.

In assay [1] (Assay Conditions 1 mM ATP), `CS(=O)(=O)c1ccc(F)c(N2CC[C@H]([C@H](CC#N)n3cc(-c4ncnc5[nH]ccc45)cn3)C2)n1` [Example 133, (3S)-3-{(3S)-1-[3-fluoro-6-(methylsulfonyl)pyridin-2-yl]pyrrolidin-3-yl}-3-[4-(7H-pyrrolo [2,3-d]pyrimidin-4-yl)-1H-pyrazol-1-yl] propanenitrile trifluoroacetate] came in with an IC50 of 0.05 to 0.1 µM. In assay [2] (Assay Conditions 1 mM ATP), the “JAK2/JAK1 IC50 ratio” value amounted to 3.

Take `COc1ncnc(N2CC[C@H]([C@H](CC#N)n3cc(-c4ncnc5[nH]ccc45)cn3)C2)c1C#N` [Example 98, 4-((S)-3-((S)-1-(4-(7H-pyrrolo[2,3-d]pyrimidin-4-yl)-1H-pyrazol-1-yl) 2-cyanoethyl)pyrrolidin-1-yl)-6-methoxypyrimidine-5-carbonitrile trifluoroacetate]: the IC50 in assay [1] (Assay Conditions 1 mM ATP) was under 0.05 µM. For the same molecule, the “JAK2/JAK1 IC50 ratio” value in assay [2] (Assay Conditions 1 mM ATP) is over 9.1.

`N#Cc1c(N2CC[C@H](C(CF)n3cc(-c4ncnc5[nH]ccc45)cn3)C2)ncc2c1S(=O)(=O)CC2` (single isomer, unassigned) [Example 178]: the IC50 in assay [1] (Assay Conditions 1 mM ATP) was under 0.05 µM. In assay [2] (Assay Conditions 1 mM ATP), the “JAK2/JAK1 IC50 ratio” value was determined as 31.8.

In assay [1] (Assay Conditions 1 mM ATP), `N#CC[C@@H]([C@H]1CCN(c2nc3ccsc3cc2C#N)C1)n1cc(-c2ncnc3[nH]ccc23)cn1` [Example 75, 5-((3S)-3-{(1S)-2-cyano-1-[4-(7H-pyrrolo[2,3-d]pyrimidin-4-yl)-1H-pyrazol-1-yl]ethyl}pyrrolidin-1-yl)thieno[3,2-b]pyridine-6-carbonitrile] registered an IC50 of under 0.05 µM. The “JAK2/JAK1 IC50 ratio” value in assay [2] (Assay Conditions 1 mM ATP) is 4.6.

Molecule `CC(C)Nc1ccnc(N2CCC(C(CC#N)n3cc(-c4ncnc5[nH]ccc45)cn3)C2)n1` (stereo not shown) [Example 7, 3-{1-[4-(isopropylamino)pyrimidin-2-yl]pyrrolidin-3-yl}-3-[4-(7H-pyrrolo[2,3-d]pyrimidin-4-yl)-1H-pyrazol-1-yl]propanenitrile] came in with an IC50 in assay [1] (setting [3]) of under 0.05 µM. The “JAK2/JAK1 IC50 ratio” value in assay [2] (setting [4]) was 4.7.

As to `COCc1c(F)cnc(N2CC[C@H]([C@H](CC#N)n3cc(-c4ncnc5[nH]ccc45)cn3)C2)c1F` [Example 101, (3S)-3-{(3S)-1-[3,5-difluoro-4-(methoxymethyl)pyridin-2-yl]pyrrolidin-3-yl}-3-[4-(7H-pyrrolo[2,3-d]pyrimidin-4-yl)-1H-pyrazol-1-yl]propanenitrile trifluoroacetate], the IC50 in assay [1] (Assay Conditions 1 mM ATP) is under 0.05 µM. Moreover, the “JAK2/JAK1 IC50 ratio” value in assay [2] (Assay Conditions 1 mM ATP) is listed as 4.0.

`N#CCC(C1CCN(c2nc3cccc(F)c3o2)C1)n1ccc(-c2ncnc3[nH]ccc23)c1` (single isomer, unassigned) [Example 158-1, 3-[1-(7-fluoro-1,3-benzoxazol-2-yl)pyrrolidin-3-yl]-3-[3-(7H-pyrrolo[2,3-d]pyrimidin-4-yl)-1H-pyrrol-1-yl]propanenitrile]: the IC50 in assay [1] (Assay Conditions 1 mM ATP) was under 0.05 µM. Further, the “JAK2/JAK1 IC50 ratio” value in assay [2] (Assay Conditions 1 mM ATP) was 22.5.

For the molecule `N#CC[C@@H]([C@H]1CCN(c2ccnc(Cl)c2C#N)C1)n1cc(-c2ncnc3[nH]ccc23)cn1` [Example 123, 2-chloro-4-((3S)-3-{(1S)-2-cyano-1-[4-(7H-pyrrolo[2,3-d]pyrimidin-4-yl)-1H-pyrazol-1-yl]ethyl}pyrrolidin-1-yl)nicotinonitrile trifluoroacetate], in assay [1] (Assay Conditions 1 mM ATP), the IC50 was under 0.05 µM. Further, in assay [2] (Assay Conditions 1 mM ATP), the “JAK2/JAK1 IC50 ratio” value was over 16.7.

In assay [1] (Assay Conditions 1 mM ATP), `N#CC[C@@H]([C@H]1CCN(c2nc(Cl)ccc2N)C1)n1cc(-c2ncnc3[nH]ccc23)cn1` [Example 105, (S)-3-(4-(7H-pyrrolo[2,3-d]pyrimidin-4-yl)-1H-pyrazol-1-yl)-3-((S)-1-(3-amino-6-chloropyridin-2-yl)pyrrolidin-3-yl)propanenitrile trifluoroacetate salt] came in with an IC50 of under 0.05 µM. Also, the “JAK2/JAK1 IC50 ratio” value in assay [2] (Assay Conditions 1 mM ATP) is 3.0.

On to `N#CC[C@@H]([C@H]1CCN(c2nccc(C(F)F)c2C#N)C1)n1cc(-c2ncnc3[nH]ccc23)cn1` [Example 103, 2-((3S)-3-{(1S)-2-cyano-1-[4-(7H-pyrrolo[2,3-d]pyrimidin-4-yl)-1H-pyrazol-1-yl]ethyl}pyrrolidin-1-yl)-4-(difluoromethyl)nicotinonitrile bis(trifluoroacetate)], for which, in assay [1] (Assay Conditions 1 mM ATP), the IC50 is under 0.05 µM. In addition, the “JAK2/JAK1 IC50 ratio” value in assay [2] (Assay Conditions 1 mM ATP) is reported as 22.8.

In turn, `CSc1nccc(N2CCC(C(CC#N)n3cc(-c4ncnc5[nH]ccc45)cn3)C2)n1` (single isomer, unassigned) [Example 23, 3-{1-[2-(methylthio)pyrimidin-4-yl]pyrrolidin-3-yl}-3-[4-(7H-pyrrolo[2,3-d]pyrimidin-4-yl)-1H-pyrazol-1-yl]propanenitrile] registered an IC50 in assay [1] (Assay Conditions 1 mM ATP) of under 0.05 µM. Also, the “JAK2/JAK1 IC50 ratio” value in assay [2] (Assay Conditions 1 mM ATP) was found to be 2.3.

As for `N#CC[C@@H]([C@H]1CCN(c2cccnc2C#N)C1)n1cc(-c2ncnc3[nH]ccc23)cn1` [Example 68, 3-((3S)-3-{(1S)-2-cyano-1-[4-(7H-pyrrolo[2,3-d]pyrimidin-4-yl)-1H-pyrazol-1-yl]ethyl}pyrrolidin-1-yl) pyridine-2-carbonitrile trifluoroacetate salt], the half-inhibitory concentration (IC50) in assay [1] (Assay Conditions 1 mM ATP) is under 0.05 µM. In assay [2] (Assay Conditions 1 mM ATP), the “JAK2/JAK1 IC50 ratio” value is recorded as 8.2.

As to `N#CCC(C1CCN(c2ncc3cccc(F)c3n2)C1)n1cc(-c2ncnc3[nH]ccc23)cn1` (stereo not shown) [Example 46, 3-[1-(8-fluoroquinazolin-2-yl)pyrrolidin-3-yl]-3-[4-(7H-pyrrolo[2,3-d]pyrimidin-4-yl)-1H-pyrazol-1-yl]propanenitrile], the IC50 in assay [1] (Assay Conditions 1 mM ATP) was under 0.05 µM. In addition, the “JAK2/JAK1 IC50 ratio” value in assay [2] (Assay Conditions 1 mM ATP) worked out at 3.7.

For the molecule `N#CCC(C1CCN(c2scnc2C#N)C1)n1ccc(-c2ncnc3[nH]ccc23)c1` (racemic) [Example 149-1, 5-(3-{2-cyano-1-[3-(7H-pyrrolo[2,3-d]pyrimidin-4-yl)-1H-pyrrol-1-yl]ethyl}pyrrolidin-1-yl)-1,3-thiazole-4-carbonitrile], in assay [1] (Assay Conditions 1 mM ATP), the 50% inhibitory concentration (IC50) is under 0.05 µM. Also, the “JAK2/JAK1 IC50 ratio” value in assay [2] (Assay Conditions 1 mM ATP) is on record as 9.9.

In assay [1] (Assay Conditions 1 mM ATP), `Cc1cccc(N2CC[C@H]([C@H](CC#N)n3cc(-c4ncnc5[nH]ccc45)cn3)C2)c1C#N` [Example 53, 2-((3S)-3-{(1S)-2-cyano-1-[4-(7H-pyrrolo[2,3-d]pyrimidin-4-yl)-1H-pyrazol-1-yl]ethyl}pyrrolidin-1-yl)-6-methylbenzonitrile trifluoroacetate salt] gave an IC50 of under 0.05 µM. In addition, the “JAK2/JAK1 IC50 ratio” value in assay [2] (Assay Conditions 1 mM ATP) was over 7.7.

Consider `N#CCC(C1CCN(c2scnc2C#N)C1)n1ccc(-c2ncnc3[nH]ccc23)c1` (racemic) [Example 149-rac, 5-(3-{2-cyano-1-[3-(7H-pyrrolo[2,3-d]pyrimidin-4-yl)-1H-pyrrol-1-yl]ethyl}pyrrolidin-1-yl)-1,3-thiazole-4-carbonitrile], for which the IC50 in assay [1] (Assay Conditions 1 mM ATP) was under 0.05 µM. Besides, the “JAK2/JAK1 IC50 ratio” value in assay [2] (Assay Conditions 1 mM ATP) is on record as 14.5.

For `N#CCC(C1CCN(c2nc3cccc(F)c3o2)C1)n1ccc(-c2ncnc3[nH]ccc23)c1` (single isomer, unassigned) [Example 158-2, 3-[1-(7-fluoro-1,3-benzoxazol-2-yl)pyrrolidin-3-yl]-3-[3-(7H-pyrrolo[2,3-d]pyrimidin-4-yl)-1H-pyrrol-1-yl]propanenitrile], the IC50 in assay [1] (Assay Conditions 1 mM ATP) was under 0.05 µM. Moreover, the “JAK2/JAK1 IC50 ratio” value in assay [2] (Assay Conditions 1 mM ATP) is given as 19.0.
